The target in experiment [1] is T1, Vitamin D3 receptor (Rattus norvegicus) (UniProt P13053).
T1 sequence (whole entry): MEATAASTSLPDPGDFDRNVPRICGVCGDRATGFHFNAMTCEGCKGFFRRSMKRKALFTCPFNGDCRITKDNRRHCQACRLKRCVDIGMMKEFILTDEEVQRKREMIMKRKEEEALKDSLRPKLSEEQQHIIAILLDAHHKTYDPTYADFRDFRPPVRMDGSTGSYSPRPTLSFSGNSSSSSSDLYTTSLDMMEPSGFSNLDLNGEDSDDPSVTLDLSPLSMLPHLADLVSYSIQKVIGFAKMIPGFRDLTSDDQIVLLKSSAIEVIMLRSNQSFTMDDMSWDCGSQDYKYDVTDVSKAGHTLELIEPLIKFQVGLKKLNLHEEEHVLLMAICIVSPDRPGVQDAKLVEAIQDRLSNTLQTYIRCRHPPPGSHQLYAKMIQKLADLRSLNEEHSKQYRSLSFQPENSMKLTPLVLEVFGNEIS
The experiment is described as follows: Vitamin D3 receptor-mediated transcriptional potency in rat osteosarcoma ROS 17/2.8 cells.

Experiment [2] addresses T1, Vitamin D3 receptor (Rattus norvegicus). The experiment is described as follows: Binding affinity for vitamin D3 receptor compared to 1,25D3 (100%).

In experiment [1], `C=C1C(=CC=C2CCC[C@]3(C)[C@@H]([C@H](C)CCCC(C)(C)O)CC[C@@H]23)C[C@@H](O)C[C@@H]1O` gave an ED50 of 0.35 nM.

In the case of `C=C1/C(=C/C=C2/CCC[C@]3(C)C([C@H](C)C/C=C(/F)S(=O)(=O)C(C)(C)C)=CC[C@@H]23)CC(O)CC1O` (some centres not stated), the Affinity in experiment [2] turned out to be 4%. Also, the ED50 in experiment [1] was determined as 4 nM.

In turn, `C=C1/C(=C/C=C2/CCC[C@]3(C)C([C@H](C)CCC(F)(F)S(=O)(=O)C(C)(C)C)=CC[C@@H]23)C[C@@H](O)C[C@@H]1O` returned an Affinity in experiment [2] of 7.9%. In experiment [1], this compound returned an ED50 of 0.65 nM.

Turning to `C=C1/C(=C/C=C2/CCC[C@]3(C)C([C@H](C)CCS(=O)(=O)C(C)(C)C)=CC[C@@H]23)C[C@@H](O)C[C@@H]1O`, the Affinity in experiment [2] was 21%. In experiment [1], the ED50 was determined as 0.8 nM.

(Values after ChEMBL document CHEMBL1132366, “Conceptually new sulfone analogues of the hormone 1alpha, 25-dihydroxyvitamin D(3): synthesis and preliminary biological evaluation” (J Med Chem, 1999).)
